Values after ≈ are worked out from the molar mass of the structure shown. Square brackets hold non-standard residues; d marks the D form. Peptide text beside a SMILES is read from it. MeBmt = C/C=C/C[C@@H](C)[C@@H](O)[C@H](NC)C(=O)O; NMeL = CN[C@@H](CC(C)C)C(=O)O; NMeV = CN[C@H](C(=O)O)C(C)C; Sar = CNCC(=O)O
Assays:
[1] = system: Hepatitis C virus; assay: Antiviral activity against HCV subgenomic replicon assessed as inhibition of replication by qRT-PCR analysis; format: functional, organism-based, Hepacivirus hominis
[2] = system: Hepatitis C virus; assay: Ratio of EC50 for FR901459 to EC50 for test compound for antiviral activity against HCV subgenomic replicon assessed as inhibition of replication by qRT-PCR analysis; format: functional, Hepacivirus hominis

| SMILES | EC50 [1] [µg/mL] | Ratio EC50 [2] |
| --- | --- | --- |
| C/C=C/C[C@@H](C)[C@@H](O)[C@H]1C(=O)N[C@@H]([C@@H](C)O)C(=O)N(C)[C@H](C)C(=O)N(C)[C@@H](CC(C)C)C(=O)N[C@@H](CC(C)C)C(=O)N(C)[C@@H](CC(C)C)C(=O)N[C@@H](C)C(=O)N[C@H](C)C(=O)N(C)[C@@H](CC(C)C)C(=O)N[C@@H](CC(C)C)C(=O)N(C)[C@@H](C(C)C)C(=O)N1C | 0.038 (≈ 0.0308 µM) | 2.5 |
| C/C=C/C[C@@H](C)[C@@H](O)[C@H]1C(=O)N[C@@H]([C@@H](C)O)C(=O)N(C)CC(=O)N(C)[C@@H](CC(C)C)C(=O)N[C@@H](CC(C)C)C(=O)N(C)[C@@H](CC(C)C)C(=O)N[C@@H](C)C(=O)N[C@H](C)C(=O)N(C)[C@@H](CC(C)C)C(=O)N[C@@H](CC(C)C)C(=O)N(C)[C@@H](C(C)C)C(=O)N1C (cyclo(A[dA][NMeL]L[NMeV][MeBmt]T[Sar][NMeL]L[NMeL])) | 0.096 (≈ 0.0788 µM) |  |

From ChEMBL document CHEMBL4725252, “Development of an efficient semisynthetic modification of FR901459 via a novel regioselective N, O-acyl migration” (Bioorg Med Chem Lett, 2020)
